Laboratory results published in PMC3995012, “The Cyanobactin Heterocyclase Enzyme: A Processive Adenylase That Operates with a Defined Order of Reaction” (Angewandte Chemie (International Ed. in English), 2013).
“Also recorded” adds a separate entry of the source. Like-named read-outs stand apart in the source and are kept apart here.

Legend:
[1] = target: T1, TruD (uncultured Prochloron sp. 06037A, UniProt B2KYG8); experiment: Isothermal titration calorimetry (VP-ITC), nucleotide injected into TruD in 150 mM NaCl, 10 mM HEPES pH 7.4, 1 mM TCEP at 20 or 25 °C, fitted to a one-site model.; format: binding
T1 construct: codon-optimized full-length, N-terminal His6-tag removed by TEV protease, expressed in E. coli BL21 (DE3); homodimer with structural Zn
T1 sequence (B2KYG8 2-781): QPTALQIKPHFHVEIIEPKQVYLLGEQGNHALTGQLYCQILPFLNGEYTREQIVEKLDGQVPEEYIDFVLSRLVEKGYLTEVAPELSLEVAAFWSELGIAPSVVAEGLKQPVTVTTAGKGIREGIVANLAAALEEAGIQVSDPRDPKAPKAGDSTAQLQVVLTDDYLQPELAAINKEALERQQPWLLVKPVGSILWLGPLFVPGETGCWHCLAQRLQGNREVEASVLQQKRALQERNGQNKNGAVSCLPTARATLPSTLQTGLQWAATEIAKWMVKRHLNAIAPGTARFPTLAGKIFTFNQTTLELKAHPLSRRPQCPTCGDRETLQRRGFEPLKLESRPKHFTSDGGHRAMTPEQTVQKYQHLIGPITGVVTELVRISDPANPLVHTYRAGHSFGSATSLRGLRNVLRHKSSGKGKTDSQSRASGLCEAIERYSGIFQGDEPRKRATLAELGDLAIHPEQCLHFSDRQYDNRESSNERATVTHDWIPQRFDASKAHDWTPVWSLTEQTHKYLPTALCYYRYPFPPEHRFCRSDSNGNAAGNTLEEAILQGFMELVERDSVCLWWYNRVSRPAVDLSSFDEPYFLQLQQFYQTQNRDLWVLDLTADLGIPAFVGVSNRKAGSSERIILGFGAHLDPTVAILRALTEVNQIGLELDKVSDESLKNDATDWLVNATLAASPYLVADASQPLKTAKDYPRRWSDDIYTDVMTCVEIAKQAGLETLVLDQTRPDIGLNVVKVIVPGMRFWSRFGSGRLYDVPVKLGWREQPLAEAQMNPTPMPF
Protocol: (§1) TruD solutions. The top panels show raw data representing the response to injections, the bottom panels show integrated heats of injections (!) and the best fit (— ) to the […]
(§2) nucleoside. […]
(§3) ITC experiments were carried out using a VP-ITC instrument (MicroCal) in TruD sample buffer (150 mM NaCl, 10 mM HEPES pH 7.4, 1 mM TCEP) at 20 or 25 °C.
(§4) Protein concentrations were determined using absorbance at 280 nm and predicted extinction coefficients (ProtParam, ExPASy) used. The concentration of PatEY53A, which lacks absorbance at 280 nm, was based on absorbance at 230 nm. All solutions were dialyzed overnight. Nucleotides and the #25 peptide were dissolved in TruD sample buffer and the pH was adjusted with small amounts of 1 M NaOH to match the buffer. Cell and syringe solutions were degassed at 18 or 23 °C for 15 min.
Titrations were performed as follows: one injection of 2 µl followed by injections of 5-10 µl at an injection speed of 0.5 µl/min. The stirring speed was 307 rpm; the delay between the injections was 4-6 min. […]
(§5) NMR experiments were performed at 10 °C on a Bruker DRX500 spectrometer equipped with a 5mm TXIz probe. […] Aliquots of 646 µM TruD were added to final concentrations of 50, 100 and 150 µM, and HSQCs were recorded after each addition. For heterocyclization monitoring, the samples contained 200 µM u-15N-PatE precursor peptide and were incubated at 10 °C with 5 µM TruD in heterocyclization buffer with 5% D2O, and spectra were recorded at progressively longer intervals (initially 0.5 h, then 1 h, then 2 h). […]
For sequential assignment, a 1.0 mM sample of u-13C, 15N-PatE precursor peptide in heterocyclization buffer was prepared. […] Equivalent spectra were recorded for fully heterocyclized u-13C, 15N-PatE (concentration 1.0 mM) and a sample where the enzymatic transformation was interrupted after 8 h by gel filtration on a Superdex S75 column (GE Healthcare) in TruD sample buffer (see ITC experimental section), thus allowing assignment of the reaction intermediate. All spectra were processed with NMRPipe ,$- and analyzed with CCPN Analysis 2.1 ,%-. […]

[2] = target: TruD; experiment: ITC, injection of nucleosides into TruD solutions; format: binding, Prochloron spp.; conditions: for Kd: one-site model
Protocol: as §1, §2, §3, §4
Titrations were performed as follows: one injection of 2 µl followed by injections of 5-10 µl at an injection speed of 0.5 µl/min. The stirring speed was 307 rpm; the delay between the injections was 4-6 min. To take into account heats of dilution, blank titrations were performed by injecting ligand solution into TruD sample buffer and the averaged heat of dilution was subtracted from the main experiment. Blank titrations were omitted in cases of saturated binding where the averaged residual signal of the last injections was used to determine the heat of dilution. Raw data were processed using MicroCal Origin software. […]
as §5
For sequential assignment, a 1.0 mM sample of u-13C, 15N-PatE precursor peptide in heterocyclization buffer was prepared. […] Equivalent spectra were recorded for fully heterocyclized u-13C, 15N-PatE (concentration 1.0 mM) and a sample where the enzymatic transformation was interrupted after 8 h by gel filtration on a Superdex S75 column (GE Healthcare) in TruD sample buffer (see ITC experimental section), thus allowing assignment of the reaction intermediate. All spectra were processed with NMRPipe ,$- and analyzed with CCPN Analysis 2.1 ,%-.
31P NMR experiments were performed at 10 °C on a Bruker AVANCE III spectrometer equipped with a 5mm BBFO+ (Smart) probe and required the substitution of sample buffer TCEP with DTT. […] 31P NMR spectra were recorded with broadband power-gated 1H decoupling and relaxation delay D1 = 1.5s. […]

[3] = test system: TruD; experiment: Heterocyclization reactions analysed by MS (ESI, MALDI, fragmentation); format: biochemical, Prochloron spp.; conditions: for use as nucleotide cofactor for heterocyclization of PatE2 by TruD: PatE2 with TruD, LC-MS and HSQC NMR of products
Protocol: for 20 min followed by passage through a 0.45 "m filter. The cleared lysate was applied to a Ni-sepharose FF column (GE Healthcare) equilibrated with urea lysis buffer and protein eluted with urea lysis buffer containing 250 mM imidazole. The eluate was then supplemented with 10 mM DTT and incubated at room temperature for 30 min before size-exclusion chromatography (Superdex 75, GE Healthcare) in 150 mM NaCl, 10 mM HEPES pH 7.4, 1 mM TCEP. Peak fractions were pooled and […]
PatE for NMR studies was produced as above, except that E. coli were grown in M9 minimal medium ,*- prepared with 15NH4Cl (Sigma) and additionally with 13C6-glucose (Sigma) for doubly labeled protein. Cells were grown to an optical density at 600 nm of 0.6, at which point expression was induced by addition of 0.5 mM IPTG and grown over night at 30 °C.
Heterocyclization reactions
For all heterocyclization reactions for MS analysis, 100 µM substrate (PatE, PatE mutants and peptides) was incubated with 0.5 µM enzyme in heterocyclization buffer (150 mM NaCl, 10 mM HEPES pH 7.4, 1 mM TCEP, 5 mM ATP, 5 mM MgCl2) for 60 min, 70 min or 16 h at 37 °C. Samples were analyzed by ESI or MALDI MS (LCT, Micromass or 4800 MALDI TOF/TOF Analyzer, ABSciex). […]
For heterocyclization reactions to be monitored by NMR the PatE concentration was increased to 200 µM and 5 µM TruD was used and the incubation temperature reduced to 10 °C. For reaction endpoints analyzed by 31P NMR samples were […]
The assay is based on coupling the TruD-dependent formation of AMP to the lactate dehydrogenase oxidation decay of NADH with NADH concentration monitored by 340 nm absorbance. […]
each added to the assay in this order. […] The decay of NADH concentration were recorded for 40 min and calculated by using extinction coefficient for NADH (#340 = […]
MALDI MS was acquired using a 4800 MALDI TOF/TOF Analyzer (ABSciex, Foster City, CA) equipped with a Nd:YAG 355 nm laser in linear mode and calibrated using the [M+H]+ and [M+2H]2+ peaks of ubiquitin. The spot was analyzed in positive MS mode between 3000 and 10000 m/z, by averaging 1000 laser spots. […]

[4] = VP-ITC, 150 mM NaCl, 10 mM HEPES pH 7.4, 1 mM TCEP, 20 or 25 °C, read-out: KD

Nc1ncnc2c1ncn2[C@@H]1O[C@H](COP(=O)(O)OP(=O)(O)O)[C@@H](O)[C@H]1O [ADP, adenosine 5'-diphosphate]
Kd ([1]; read-out: KD): 20 µM

Nc1ncnc2c1ncn2[C@@H]1O[C@H](COP(=O)(O)OP(=O)(O)O)[C@@H](O)[C@H]1O [ADP]
Kd ([2]; ADP decomposes slowly, only the rapidly emerging endothermic parts of the ITC signals analysed, read-out: apparent KD): 20 µM

Nc1ncnc2c1ncn2[C@@H]1O[C@H](COP(=O)(O)O)[C@@H](O)[C@H]1O [AMP, adenosine 5'-monophosphate]
Kd ([1]; read-out: KD): 12 µM

Nc1ncnc2c1ncn2[C@@H]1O[C@H](COP(=O)(O)O)[C@@H](O)[C@H]1O [AMP]
Kd [2, 4]: 12 µM

Nc1ncnc2c1ncn2[C@@H]1O[C@H](COP(=O)(O)OP(=O)(O)OP(=O)(O)O)[C@@H](O)[C@H]1O [ATP, adenosine 5'-triphosphate]
Kd [1]: 19 µM

Nc1ncnc2c1ncn2[C@@H]1O[C@H](COP(=O)(O)OP(=O)(O)OP(=O)(O)O)[C@@H](O)[C@H]1O [ATP]
Kd [2, 4]: 19 µM

Nc1nc2c(ncn2[C@@H]2O[C@H](COP(=O)(O)OP(=O)(O)OP(=O)(O)O)[C@@H](O)[C@H]2O)c(=O)[nH]1 [GTP]
use as nucleotide cofactor for heterocyclization of PatE2 by TruD [3]: can catalyze heterocyclization of cysteine

Cc1cn([C@H]2C[C@H](O)[C@@H](COP(=O)(O)OP(=O)(O)OP(=O)(O)O)O2)c(=O)[nH]c1=O [dTTP]
binding to TruD in ITC experiments ([2]; injection into a TruD solution): not report binding under these conditions; also recorded: does not bind
use as nucleotide cofactor for heterocyclization of PatE2 by TruD [3]: can catalyze heterocyclization of cysteine

ITACITFC [core peptide, the eight-residue core peptide itself]
processing (heterocyclization of cysteines) by TruD ([3]; 100 µM substrate, 0.5 µM enzyme, 150 mM NaCl, 10 mM HEPES pH 7.4, 1 mM TCEP, 5 mM ATP, 5 mM MgCl2, 60 min, 70 min or 16 h at 37 °C, ESI or MALDI MS): No reaction
